The nature of the data set: Stability of test item in solution. In kind it is physicochemical. The note with it: in Locke-Ringer Solution.

Regarding `CCC(=O)[O-].[Na+]` [Sodium propionate], the “Stability of Test Item in Solution” value was ≥6 months in Locke-Ringer Solution.

The values above are taken from US20200000751A1, “CARBOXYLIC ACIDS FOR TREATING/PREVENTING NASAL CONGESTION” (PROPONENT BIOTECH GMBH, priority 2016, published 2020).
